Results from PubChem BioAssay (NCI).
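Step 1: Grow cells in 96-well plates. Step 2: Expose to compound for 48 hours at 5 concentrations. Step 3: Interpolate endpoints linearly; if unreached, use highest concentration. TGI is the concentration that stops growth completely.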 Where a SMILES comes first, the peptide text is derived from it.

Key:
Test in all cases: DTP human tumour cell line panel, 48 h
MDA-MB-231 breast = test system: MDA-MB-231 breast
UACC-62 melanoma = test system: UACC-62 melanoma
NCI-H460 lung = test system: NCI-H460 lung
A498 renal = test system: A498 renal
ACHN renal = test system: ACHN renal
DU-145 prostate = test system: DU-145 prostate
U251 CNS = test system: U251 CNS
NCI-H226 lung = test system: NCI-H226 lung
NCI-H522 lung = test system: NCI-H522 lung
CAKI-1 renal = test system: CAKI-1 renal
MDA-MB-435 = test system: MDA-MB-435
SF-539 CNS = test system: SF-539 CNS
HCT-15 colon = test system: HCT-15 colon
T-47D breast = test system: T-47D breast
SF-268 CNS = test system: SF-268 CNS
SW-620 colon = test system: SW-620 colon
SNB-19 CNS = test system: SNB-19 CNS

| SMILES | TGI (MDA-MB-231 breast) | TGI (UACC-62 melanoma) | TGI (NCI-H460 lung) | TGI (A498 renal) | TGI (ACHN renal) | TGI (DU-145 prostate) | TGI (U251 CNS) | TGI (NCI-H226 lung) | TGI (NCI-H522 lung) | TGI (CAKI-1 renal) | TGI (MDA-MB-435) | TGI (SF-539 CNS) | TGI (HCT-15 colon) | TGI (T-47D breast) | TGI (SF-268 CNS) | TGI (SW-620 colon) | TGI (SNB-19 CNS) |
| --- | --- | --- | --- | --- | --- | --- | --- | --- | --- | --- | --- | --- | --- | --- | --- | --- | --- |
| CC[N+]1(C)CCC(O)(c2ccccc2)C(C(=O)c2ccccc2)C1 (stereo not drawn) | 42.7 µM | 38.6 µM | 43 µM | 30.7 µM | 23 µM | 44.6 µM | 43.2 µM | 38.8 µM | 3.29 µM | 7.51 µM | 34.2 µM | 31.3 µM | 21.8 µM | 39.7 µM | 59.8 µM | 4.58 µM | 24.5 µM |
| COC(=O)n1c(=O)n(-c2ccccc2)c(=O)n1C(=O)Nc1ccccc1 | > 100 µM | > 100 µM | > 100 µM | > 100 µM | > 100 µM | > 100 µM | > 100 µM | > 100 µM | > 100 µM | > 100 µM | > 100 µM |  | > 100 µM | > 100 µM | > 100 µM | > 100 µM | > 100 µM |
| COc1cc2c(cc1OC)C1CCc3ccccc3CN1CC2 (stereo not drawn) | > 100 µM | > 100 µM | > 100 µM | > 100 µM | > 100 µM | > 100 µM | > 100 µM | > 100 µM | > 100 µM | > 100 µM | > 100 µM | > 100 µM | > 100 µM | > 100 µM | > 100 µM | > 100 µM | > 100 µM |
| CN(C)/C=C(\C(=O)c1ccccc1)n1nc(-c2ccccc2)cc1-c1ccccc1 | > 10 µM | > 10 µM | > 10 µM | > 10 µM | > 10 µM | > 10 µM | > 10 µM | > 10 µM | > 10 µM | > 10 µM | > 10 µM | > 10 µM | > 10 µM | > 10 µM | > 10 µM | > 10 µM | > 10 µM |
| CCCN(CCC)c1cc2c(cc1F)c(=O)c(C(=O)O)cn2-c1ccc(N2CCN(C)CC2)cn1 | 27.1 µM | 39.6 µM | 36.5 µM | 49.2 µM |  | 45.3 µM | > 100 µM | 31.1 µM | 24.9 µM | 32.5 µM | 38.9 µM | 32.6 µM | > 100 µM | 38.8 µM | 30.7 µM | 48.2 µM | 31.5 µM |
| CN(C)c1nc(=NCc2cccs2)ss1 | > 10 µM | > 10 µM | > 10 µM | > 10 µM | > 10 µM | > 10 µM | > 10 µM | > 10 µM | 9.57 µM | > 10 µM | > 10 µM | > 10 µM | > 10 µM | > 10 µM | > 10 µM | > 10 µM | > 10 µM |
| CCN(CC)CCn1c2cc3c(cc2c(=O)c2cccnc21)OCO3 | > 10 µM | > 10 µM | 7.79 µM | > 10 µM | > 10 µM | > 10 µM | > 10 µM | > 10 µM | > 10 µM | > 10 µM | > 10 µM | > 10 µM | > 10 µM | > 10 µM | > 10 µM | > 10 µM | > 10 µM |
| COc1ccc2c(c1)CC[C@@H]1[C@@H]2CC[C@]2(C)C(=O)/C(=C/c3ccncc3)C[C@@H]12 | > 100 µM | > 100 µM | > 100 µM | 87.6 µM | > 100 µM | > 100 µM | > 100 µM | > 100 µM | 92.1 µM | > 100 µM | 92.4 µM | 55.1 µM | > 100 µM | > 100 µM | > 100 µM | 86 µM | > 100 µM |
| O=C(Nc1sccc1S(=O)(=O)c1ccc(Cl)cc1)C(F)(F)F | 37.3 µM | > 100 µM | > 100 µM | > 100 µM | > 100 µM | > 100 µM | > 100 µM | > 100 µM | > 100 µM | 62.5 µM | > 100 µM | 93.7 µM | > 100 µM | > 100 µM | 83.6 µM | > 100 µM | > 100 µM |
| CC(=O)NC(CS)C(=O)NC(CO)C(=O)NC(CO)C(=O)NC(Cc1c[nH]c2ccccc12)C(=O)N1CCCC1C(=O)NC(CO)C(=O)NC(Cc1c[nH]c2ccccc12)C(=O)NC(Cc1c[nH]cn1)C(=O)NC(CO)C(=O)NC(Cc1c[nH]c2ccccc12)C(=O)NCC(=O)NCC(=O)NC(CC(=O)O)C(=O)NC(CCC(N)=O)C(=O)NC(CCCCN)C(=O)NC(Cc1ccccc1)C(=O)NC(CCCNC(=N)N)C(=O)NC(CCCCN)C(N)=O (stereo not drawn) (Ac-CSSWPSWHSWGGDQKFRK-NH2; configuration not given here) | > 25 µM | > 25 µM | > 25 µM | > 25 µM | > 25 µM | > 25 µM | > 25 µM | > 25 µM | > 25 µM | > 25 µM | > 25 µM | > 25 µM | > 25 µM | > 25 µM | > 25 µM | > 25 µM | > 25 µM |
